The record followed here is US20090181963A1, “3H-[1,2,3]TRIAZOLO[4,5-D]PYRIMIDINE COMPOUNDS, THEIR USE AS mTOR KINASE AND PI3 KINASE INHIBITORS, AND THEIR [sequence]” (Wyeth, priority 2008, published 2009).

Test [1] concerns the target PI3 Kinase α (Homo sapiens, UniProt P42336). Nature of the test: Fluorescence polarization assay for PI3K (PI3 Kinase α). The conditions noted are these: diC8-PI(4,5)P2 substrate, 25 μM ATP, one hour at 25° C. In kind it is biochemical.
The target of test [2] is PI3 Kinase γ (Homo sapiens, UniProt P48736). Kind of test: Fluorescence polarization assay for PI3K (PI3 Kinase γ). As to conditions: diC8-PI(4,5)P2 substrate, 25 μM ATP, one hour at 25° C. In kind it is biochemical.
Sequence of PI3 Kinase γ (P48736 whole entry): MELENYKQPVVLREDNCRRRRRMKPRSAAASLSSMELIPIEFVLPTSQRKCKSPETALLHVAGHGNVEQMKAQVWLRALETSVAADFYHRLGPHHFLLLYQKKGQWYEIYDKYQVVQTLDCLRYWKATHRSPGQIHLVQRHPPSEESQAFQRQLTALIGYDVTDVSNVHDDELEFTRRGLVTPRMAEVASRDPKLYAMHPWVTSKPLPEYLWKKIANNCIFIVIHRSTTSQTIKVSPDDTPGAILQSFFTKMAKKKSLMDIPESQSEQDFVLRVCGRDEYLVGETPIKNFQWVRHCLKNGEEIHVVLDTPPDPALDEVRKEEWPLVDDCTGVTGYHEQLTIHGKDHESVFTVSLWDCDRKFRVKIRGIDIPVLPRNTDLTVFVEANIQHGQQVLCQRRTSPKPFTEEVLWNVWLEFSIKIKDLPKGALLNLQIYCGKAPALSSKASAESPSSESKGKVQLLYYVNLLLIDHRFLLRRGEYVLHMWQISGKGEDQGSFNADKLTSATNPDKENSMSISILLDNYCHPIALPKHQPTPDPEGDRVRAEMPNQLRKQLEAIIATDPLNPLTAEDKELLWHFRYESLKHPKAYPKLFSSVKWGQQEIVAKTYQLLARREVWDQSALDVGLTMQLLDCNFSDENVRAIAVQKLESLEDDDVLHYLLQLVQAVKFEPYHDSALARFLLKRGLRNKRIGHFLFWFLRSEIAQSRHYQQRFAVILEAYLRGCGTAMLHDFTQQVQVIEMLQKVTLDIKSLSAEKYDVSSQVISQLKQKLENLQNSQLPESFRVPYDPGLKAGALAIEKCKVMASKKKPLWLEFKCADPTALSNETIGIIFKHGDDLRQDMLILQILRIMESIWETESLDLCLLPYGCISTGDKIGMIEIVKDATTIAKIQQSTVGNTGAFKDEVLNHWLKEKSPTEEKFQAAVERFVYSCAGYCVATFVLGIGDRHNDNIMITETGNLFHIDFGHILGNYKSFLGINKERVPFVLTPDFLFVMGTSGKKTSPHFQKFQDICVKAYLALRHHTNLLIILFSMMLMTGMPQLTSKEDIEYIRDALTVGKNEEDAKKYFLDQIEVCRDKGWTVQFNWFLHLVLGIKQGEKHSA

Sequence of PI3 Kinase α (P42336 whole entry): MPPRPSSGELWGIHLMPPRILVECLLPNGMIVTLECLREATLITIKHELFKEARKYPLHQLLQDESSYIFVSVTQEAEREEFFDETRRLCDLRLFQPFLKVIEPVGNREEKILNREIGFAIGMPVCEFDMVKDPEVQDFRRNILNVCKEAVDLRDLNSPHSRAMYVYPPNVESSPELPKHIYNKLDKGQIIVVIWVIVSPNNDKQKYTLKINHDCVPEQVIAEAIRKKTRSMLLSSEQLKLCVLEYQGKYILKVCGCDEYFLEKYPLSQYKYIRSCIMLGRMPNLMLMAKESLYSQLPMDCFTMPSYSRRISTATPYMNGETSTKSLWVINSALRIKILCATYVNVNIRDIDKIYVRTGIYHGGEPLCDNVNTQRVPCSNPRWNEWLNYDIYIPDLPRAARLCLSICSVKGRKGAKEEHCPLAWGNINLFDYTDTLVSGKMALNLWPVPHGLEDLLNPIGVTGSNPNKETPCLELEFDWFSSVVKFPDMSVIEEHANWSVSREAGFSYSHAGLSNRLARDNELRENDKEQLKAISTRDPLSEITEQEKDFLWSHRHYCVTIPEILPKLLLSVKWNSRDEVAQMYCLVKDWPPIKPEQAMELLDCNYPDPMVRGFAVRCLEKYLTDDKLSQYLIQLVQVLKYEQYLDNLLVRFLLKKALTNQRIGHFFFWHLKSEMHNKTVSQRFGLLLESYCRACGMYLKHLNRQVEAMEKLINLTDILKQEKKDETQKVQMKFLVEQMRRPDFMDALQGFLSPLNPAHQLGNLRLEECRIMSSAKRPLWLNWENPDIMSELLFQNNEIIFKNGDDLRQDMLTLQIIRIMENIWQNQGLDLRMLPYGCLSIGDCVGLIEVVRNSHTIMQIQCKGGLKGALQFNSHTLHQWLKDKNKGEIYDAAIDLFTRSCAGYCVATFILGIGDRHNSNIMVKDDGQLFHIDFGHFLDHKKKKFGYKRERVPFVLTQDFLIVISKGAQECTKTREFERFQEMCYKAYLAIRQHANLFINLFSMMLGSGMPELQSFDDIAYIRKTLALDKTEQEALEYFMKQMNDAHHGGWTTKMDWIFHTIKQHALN
Sequence of PI3 Kinase α (P27986 whole entry partner): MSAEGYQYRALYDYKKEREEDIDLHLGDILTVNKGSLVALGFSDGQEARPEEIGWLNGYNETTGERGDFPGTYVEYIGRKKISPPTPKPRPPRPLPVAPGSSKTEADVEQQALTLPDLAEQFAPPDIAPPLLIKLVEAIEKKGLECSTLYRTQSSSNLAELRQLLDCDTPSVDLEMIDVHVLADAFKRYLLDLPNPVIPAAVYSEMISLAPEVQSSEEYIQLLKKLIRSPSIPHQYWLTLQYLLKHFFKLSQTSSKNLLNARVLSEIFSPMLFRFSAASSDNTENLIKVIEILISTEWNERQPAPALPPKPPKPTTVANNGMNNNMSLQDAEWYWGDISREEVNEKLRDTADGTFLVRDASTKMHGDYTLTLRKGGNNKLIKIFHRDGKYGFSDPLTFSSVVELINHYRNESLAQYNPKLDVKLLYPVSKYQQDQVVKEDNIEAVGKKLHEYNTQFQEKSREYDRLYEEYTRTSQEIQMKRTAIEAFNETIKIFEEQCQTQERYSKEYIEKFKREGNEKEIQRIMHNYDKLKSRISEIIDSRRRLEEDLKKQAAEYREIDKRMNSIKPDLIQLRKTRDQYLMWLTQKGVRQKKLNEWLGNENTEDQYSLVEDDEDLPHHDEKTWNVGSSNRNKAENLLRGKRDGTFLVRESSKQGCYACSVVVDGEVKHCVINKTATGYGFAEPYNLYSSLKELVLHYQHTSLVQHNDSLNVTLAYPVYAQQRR

In the case of `CC(C)n1nnc2c(N3CCOCC3)nc(-c3ccc(NC(=O)NCCN(C)C)cc3)nc21` [Example 88, 1-[2-(dimethylamino)ethyl]-3-[4-(3-isopropyl-7-morpholin-4-yl-3H-[1,2,3]triazolo[4,5-d]pyrimidin-5-yl)phenyl]urea], the concentration for half-maximal inhibition (IC50) in test [1] worked out at 77.5 nM; in test [2], 197 nM.
Regarding `COc1ccc(NC(=O)Nc2ccc(-c3nc(N4CCOCC4)c4nnn(C(C)C)c4n3)cc2)cc1` [Example 89, 1-(4-methoxy-phenyl)-3-[4-(3-isopropyl-7-morpholin-4-yl-3H-[1,2,3]triazolo[4,5-d]pyrimidin-5-yl)-phenyl]-urea], the IC50 came out at 15.5 nM in test [1] and 40 nM in test [2].
On to `Cc1ccc(NC(=O)Nc2ccc(-c3nc(N4CCOCC4)c4nnn(C(C)C)c4n3)cc2)cc1` [Example 90, 1-(4-methyl-phenyl)-3-[4-(3-isopropyl-7-morpholin-4-yl-3H-[1,2,3]triazolo[4,5-d]pyrimidin-5-yl)-phenyl]-urea], for which the 50% inhibitory concentration (IC50) in test [1] was determined as 34.5 nM; in test [2] it was 100 nM.
Take `CNC(=O)Nc1ccc(-c2nc(N3CCOCC3)c3nnn(C(C)C)c3n2)cc1` [Example 91, 1-[4-(3-isopropyl-7-morpholin-4-yl-3H-[1,2,3]triazolo[4,5-d]pyrimidin-5-yl)-phenyl]-3-methyl-urea]: the IC50 in test [1] worked out at 41.5 nM; in test [2], 409 nM.
Take `CCN1CCCC1CNC(=O)Nc1ccc(-c2nc(N3CCOCC3)c3nnn(C(C)C)c3n2)cc1` (stereo not shown) [Example 92, 1-(1-ethyl-pyrrolidin-2-ylmethyl)-3-[4-(3-isopropyl-7-morpholin-4-yl-3H-[1,2,3]triazolo[4,5-d]pyrimidin-5-yl)-phenyl]-urea]: the IC50 in test [1] worked out at 149 nM; in test [2], 645 nM.
For `CC(C)n1nnc2c(N3CCOCC3)nc(-c3ccc(NC(=O)Nc4ccc(C(N)=O)cc4)cc3)nc21` [Example 93, 4-{3-[4-(3-isopropyl-7-morpholin-4-yl-3H-[1,2,3]triazolo[4,5-d]pyrimidin-5-yl)-phenyl]-ureido}-benzamide], in that order: 2.5 nM and 18 nM.
For `CC(C)n1nnc2c(N3CCOCC3)nc(-c3ccc(NC(=O)Nc4cnoc4)cc3)nc21` [Example 94, 1-[4-(3-isopropyl-7-morpholin-4-yl-3H-[1,2,3]triazolo[4,5-d]pyrimidin-5-yl)-phenyl]-3-isoxazol-4-yl-urea], in that order: 34.5 nM and 132 nM.
Taken in the same sequence, the figures for `CC(C)n1nnc2c(N3CCOCC3)nc(-c3ccc(NC(=O)Nc4cc[nH]c4)cc3)nc21` [Example 95, 1-[4-(3-isopropyl-7-morpholin-4-yl-3H-[1,2,3]triazolo[4,5-d]pyrimidin-5-yl)-phenyl]-3-(1H-pyrrol-3-yl)-urea] were 33.7 nM and 91 nM.
`CC(C)n1nnc2c(N3CCOCC3)nc(-c3ccc(NC(N)=O)cc3)nc21` [Example 96, [4-(3-isopropyl-7-morpholin-4-yl-3H-[1,2,3]triazolo[4,5-d]pyrimidin-5-yl)-phenyl]-urea]: the IC50 in test [1] was determined as 49.7 nM; in test [2], 620 nM.
Taken in the same sequence, the figures for `CC(C)(C)OC(=O)N1CCN(CCn2nnc3c(N4CCOCC4)nc(-c4cccc(O)c4)nc32)CC1` [Example 97, tert-butyl 4-{2-[5-(3-hydroxyphenyl)-7-morpholin-4-yl-3H-[1,2,3]triazolo[4,5-d]pyrimidin-3-yl]ethyl}piperazine-1-carboxylate] were 1020 nM and 4360 nM.
For `Oc1cccc(-c2nc(N3CCOCC3)c3nnn(CCN4CCNCC4)c3n2)c1` [Example 98, 3-[7-morpholin-4-yl-3-(2-piperazin-1-ylethyl)-3H-[1,2,3]triazolo[4,5-d]pyrimidin-5-yl]phenol], in that order: 54 nM and 595 nM.
Taken in the same sequence, the figures for `O=C(c1ccccc1)N1CCN(CCn2nnc3c(N4CCOCC4)nc(-c4cccc(O)c4)nc32)CC1` [Example 99, 3-{3-[2-(4-benzoylpiperazin-1-yl)ethyl]-7-morpholin-4-yl-3H-[1,2,3]triazolo[4,5-d]pyrimidin-5-yl}phenol] were 924 nM and 5750 nM.
In the case of `CCC(=O)N1CCN(CCn2nnc3c(N4CCOCC4)nc(-c4cccc(O)c4)nc32)CC1` [Example 100, 3-{7-morpholin-4-yl-3-[2-(4-propionylpiperazin-1-yl)ethyl]-3H-[1,2,3]triazolo[4,5-d]pyrimidin-5-yl}phenol], the values for the IC50 in test [1] and in test [2] were 1660 nM and 3140 nM, respectively.
In the case of `O=C(c1ccc(F)cc1)N1CCN(CCn2nnc3c(N4CCOCC4)nc(-c4cccc(O)c4)nc32)CC1` [Example 101, 3-(3-{2-[4-(4-fluorobenzoyl)piperazin-1-yl]ethyl}-7-morpholin-4-yl-3H-[1,2,3]triazolo[4,5-d]pyrimidin-5-yl)phenol], the half-maximal inhibitory concentration (IC50) in test [1] is 538 nM; in test [2] it was 3550 nM.
With `O=C(c1ccc(F)c(F)c1)N1CCN(CCn2nnc3c(N4CCOCC4)nc(-c4cccc(O)c4)nc32)CC1` [Example 102, 3-(3-{2-[4-(3,4-difluorobenzoyl)piperazin-1-yl]ethyl}-7-morpholin-4-yl-3H-[1,2,3]triazolo[4,5-d]pyrimidin-5-yl)phenol], the IC50 in test [1] was determined as 1260 nM; in test [2], 1920 nM.
Taken in the same sequence, the figures for `O=C(c1ccncc1)N1CCN(CCn2nnc3c(N4CCOCC4)nc(-c4cccc(O)c4)nc32)CC1` [Example 103, 3-{3-[2-(4-isonicotinoylpiperazin-1-yl)ethyl]-7-morpholin-4-yl-3H-[1,2,3]triazolo[4,5-d]pyrimidin-5-yl}phenol] were 987 nM and 5050 nM.
Regarding `O=C(Cc1ccccc1)N1CCN(CCn2nnc3c(N4CCOCC4)nc(-c4cccc(O)c4)nc32)CC1` [Example 104, 3-(7-morpholin-4-yl-3-{2-[4-(phenylacetyl)piperazin-1-yl]ethyl}-3H-[1,2,3]triazolo[4,5-d]pyrimidin-5-yl)phenol], the IC50 in test [1] came out at 1170 nM; in test [2], 3030 nM.
Taken in the same sequence, the figures for `CC(=O)N1CCN(CCn2nnc3c(N4CCOCC4)nc(-c4cccc(O)c4)nc32)CC1` [Example 105, 3-{3-[2-(4-acetylpiperazin-1-yl)ethyl]-7-morpholin-4-yl-3H-[1,2,3]triazolo[4,5-d]pyrimidin-5-yl}phenol] were 1380 nM and 2960 nM.
For the compound `Oc1cccc(-c2nc(N3CCOCC3)c3nnn(CCN4CCN(C5CCCCC5)CC4)c3n2)c1` [Example 106, 3-{3-[2-(4-cyclohexylpiperazin-1-yl)ethyl]-7-morpholin-4-yl-3H-[1,2,3]triazolo[4,5-d]pyrimidin-5-yl}phenol], the IC50 in test [1] was found to be 556 nM; in test [2] it was 2140 nM.
As for `CCCCN1CCN(CCn2nnc3c(N4CCOCC4)nc(-c4cccc(O)c4)nc32)CC1` [Example 107, 3-{3-[2-(4-butylpiperazin-1-yl)ethyl]-7-morpholin-4-yl-3H-[1,2,3]triazolo[4,5-d]pyrimidin-5-yl}phenol], the IC50 in test [1] amounted to 1040 nM; in test [2], 2490 nM.
With `CC(C)CN1CCN(CCn2nnc3c(N4CCOCC4)nc(-c4cccc(O)c4)nc32)CC1` [Example 108, 3-{3-[2-(4-isobutylpiperazin-1-yl)ethyl]-7-morpholin-4-yl-3H-[1,2,3]triazolo[4,5-d]pyrimidin-5-yl}phenol], the IC50 was determined as 941 nM in test [1] and 2770 nM in test [2].
As for `Oc1cccc(-c2nc(N3CCOCC3)c3nnn(CCN4CCN(Cc5cccc(F)c5)CC4)c3n2)c1` [Example 109, 3-(3-{2-[4-(3-fluorobenzyl)piperazin-1-yl]ethyl}-7-morpholin-4-yl-3H-[1,2,3]triazolo[4,5-d]pyrimidin-5-yl)phenol], the IC50 is 242 nM in test [1] and 900 nM in test [2].
On to `CN(C)CCCOc1ccc(CN2CCN(CCn3nnc4c(N5CCOCC5)nc(-c5cccc(O)c5)nc43)CC2)cc1` [Example 110, 3-{3-[2-(4-{4-[3-(dimethylamino)propoxy]benzyl}piperazin-1-yl)ethyl]-7-morpholin-4-yl-3H-[1,2,3]triazolo[4,5-d]pyrimidin-5-yl}phenol], for which the IC50 is 200 nM in test [1] and 402 nM in test [2].
Taken in the same sequence, the figures for `Oc1cccc(-c2nc(N3CCOCC3)c3nnn(CCN4CCN(Cc5cccnc5)CC4)c3n2)c1` [Example 111, 3-(7-morpholin-4-yl-3-{2-[4-(pyridin-3-ylmethyl)piperazin-1-yl]ethyl}-3H-[1,2,3]triazolo[4,5-d]pyrimidin-5-yl)phenol] were 439 nM and 2290 nM.
Taken in the same sequence, the figures for `Oc1cccc(-c2nc(N3CCOCC3)c3nnn(CCN4CCN(Cc5ccc[nH]5)CC4)c3n2)c1` [Example 112, 3-(7-morpholin-4-yl-3-{2-[4-(1H-pyrrol-2-ylmethyl)piperazin-1-yl]ethyl}-3H-[1,2,3]triazolo[4,5-d]pyrimidin-5-yl)phenol] were 154 nM and 1020 nM.
With `Oc1cccc(-c2nc(N3CCOCC3)c3nnn(CCN4CCN(Cc5ccco5)CC4)c3n2)c1` [Example 113, 3-(3-{2-[4-(2-furylmethyl)piperazin-1-yl]ethyl}-7-morpholin-4-yl-3H-[1,2,3]triazolo[4,5-d]pyrimidin-5-yl)phenol], the IC50 was found to be 726 nM in test [1] and 3350 nM in test [2].
For `Oc1cccc(-c2nc(N3CCOCC3)c3nnn(CCN4CCN(Cc5ccccc5)CC4)c3n2)c1` [Example 114, 3-{3-[2-(4-benzylpiperazin-1-yl)ethyl]-7-morpholin-4-yl-3H-[1,2,3]triazolo[4,5-d]pyrimidin-5-yl}phenol], the IC50 in test [1] came out at 255 nM; in test [2] it was 982 nM.
Take `COC(=O)c1cccc(-n2nnc3c(N4CCOCC4)nc(-c4cccc(O)c4)nc32)c1` [Example 115, methyl 3-[5-(3-hydroxyphenyl)-7-morpholin-4-yl-3H-[1,2,3]triazolo[4,5-d]pyrimidin-3-yl]benzoate]: the IC50 in test [1] amounted to 240 nM; in test [2], 3630 nM.
As for `COC(=O)c1cccc(-n2nnc3c(N4CCOCC4)nc(-c4cccc(C=O)c4)nc32)c1` [Example 116, methyl 3-[5-(3-formylphenyl)-7-morpholin-4-yl-3H-[1,2,3]triazolo[4,5-d]pyrimidin-3-yl]benzoate], the IC50 in test [1] and in test [2] was more than 10000 nM in each case.
